From PMC2916072 (Archives of biochemistry and biophysics, 2010)
pIC50: −log10 of the molar value.

Molecular target: Met receptor tyrosine kinase (Homo sapiens, UniProt P08581)
Assay: phospho-Met
Type: cell-based

Sequence of Met receptor tyrosine kinase (P08581 25-307): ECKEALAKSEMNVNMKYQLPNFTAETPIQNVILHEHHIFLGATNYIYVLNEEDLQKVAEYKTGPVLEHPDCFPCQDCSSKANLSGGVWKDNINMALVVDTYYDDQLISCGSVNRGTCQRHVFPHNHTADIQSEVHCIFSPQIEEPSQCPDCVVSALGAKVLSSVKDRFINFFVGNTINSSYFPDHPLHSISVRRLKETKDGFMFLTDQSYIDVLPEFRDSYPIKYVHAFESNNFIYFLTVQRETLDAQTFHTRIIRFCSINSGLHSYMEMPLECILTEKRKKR
Sequence of Met receptor tyrosine kinase (P08581 308-1390): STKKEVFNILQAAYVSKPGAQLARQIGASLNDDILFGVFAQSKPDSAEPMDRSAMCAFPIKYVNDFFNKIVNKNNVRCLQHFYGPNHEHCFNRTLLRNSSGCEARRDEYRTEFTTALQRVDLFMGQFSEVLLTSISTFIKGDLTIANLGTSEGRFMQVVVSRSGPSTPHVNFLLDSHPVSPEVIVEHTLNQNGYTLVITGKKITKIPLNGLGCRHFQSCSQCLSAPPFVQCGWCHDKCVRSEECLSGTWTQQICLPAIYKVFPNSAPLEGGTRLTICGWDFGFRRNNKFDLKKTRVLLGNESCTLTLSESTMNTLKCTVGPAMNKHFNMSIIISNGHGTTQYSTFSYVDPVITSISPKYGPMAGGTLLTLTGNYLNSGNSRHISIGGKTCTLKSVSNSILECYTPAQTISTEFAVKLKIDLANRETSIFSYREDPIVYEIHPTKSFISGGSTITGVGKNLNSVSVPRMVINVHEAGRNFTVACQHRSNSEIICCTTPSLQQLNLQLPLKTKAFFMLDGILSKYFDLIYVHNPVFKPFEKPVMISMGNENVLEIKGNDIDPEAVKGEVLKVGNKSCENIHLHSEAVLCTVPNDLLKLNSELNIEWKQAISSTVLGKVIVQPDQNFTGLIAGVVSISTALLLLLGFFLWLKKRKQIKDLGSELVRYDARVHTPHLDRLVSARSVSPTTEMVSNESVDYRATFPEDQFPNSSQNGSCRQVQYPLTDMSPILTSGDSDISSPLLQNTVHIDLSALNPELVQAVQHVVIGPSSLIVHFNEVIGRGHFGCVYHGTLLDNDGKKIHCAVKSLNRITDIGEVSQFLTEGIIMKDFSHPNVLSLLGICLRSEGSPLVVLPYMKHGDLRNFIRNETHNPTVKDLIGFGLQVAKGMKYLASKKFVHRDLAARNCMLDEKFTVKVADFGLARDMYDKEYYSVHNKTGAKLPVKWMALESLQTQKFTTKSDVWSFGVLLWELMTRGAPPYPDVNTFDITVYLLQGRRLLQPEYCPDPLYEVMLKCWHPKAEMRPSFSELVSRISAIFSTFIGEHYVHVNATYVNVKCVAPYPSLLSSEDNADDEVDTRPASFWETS

Cc1[nH]c(/C=C2\C(=O)Nc3ccc(S(=O)(=O)N(C)c4cccc(Cl)c4)cc32)c(C)c1C(=O)N1CCN(C)CC1 [SU11274, (3Z)-N-(3-chlorophenyl)-3-({3,5-dimethyl-4-[(4-methylpiperazin-1-yl)carbonyl]-1H-pyrrol-2-yl}methylene)-N-methyl-2-oxoindoline-5-sulfonamide]
pIC50: 7.30
